Test results published in patent US8946453B2, “Chemical compounds” (Syngenta Participations AG, priority 2011, dated 2015).

Assays:
[1] = system: Myzus persicae (Green Peach Aphid); assay: Activity against Myzus persicae, mixed population, feeding/residual contact, preventive (sunflower leaf discs); conditions: foliar, 144 h, read-out: activity
[2] = system: Myzus persicae (Green Peach Aphid); assay: Activity against Myzus persicae on cabbage plants, feeding/residual contact, spray chamber; conditions: in Brassica oleracea, 144 h, read-out: activity against Myzus persicae
[3] = system: Myzus persicae (Green Peach Aphid); assay: Activity against Myzus persicae, mixed population, systemic/feeding, curative (pea seedling roots in test solution); conditions: 144 h, read-out: activity

melting point [°C]	Compound	pest or weed control at 400 ppm [1] [%]	pest or weed control at 200 ppm [2] [%]	pest or weed control at 400 ppm [3] [%]
91 to 93	CCOC(=O)OC1=C(c2cc(C)ccc2C)C(=O)NC1CC1CCS(=O)(=NC(=O)C(F)(F)F)CC1 (single isomer, unassigned) [Compound P1.6, carbonic acid 4-(2,5-dimethyl-phenyl)-5-oxo-2-[1-oxo-1-(2,2,2-trifluoro-acetylimino)-hexahydro-1λ^6-thiopyran-4-ylmethyl]-2,5-dihydro-1H-pyrrol-3-yl ester ethyl ester]			
87 to 89	CCOC(=O)OC1=C(c2cc(C)ccc2C)C(=O)NC1CC1CCS(=O)(=NC(=O)C(F)(F)F)CC1 (single isomer, unassigned) [Compound P1.7, carbonic acid 4-(2,5-dimethyl-phenyl)-5-oxo-2-[1-oxo-1-(2,2,2-trifluoro-acetylimino)-hexahydro-1λ^6-thiopyran-4-ylmethyl]-2,5-dihydro-1H-pyrrol-3-yl ester ethyl ester]			
	CCOC(=O)OC1=C(c2cc(C)ccc2C)C(=O)NC1CC1CCN(OC)CC1 (stereo not drawn) [Compound P1.1, carbonic acid 4-(2,5-dimethyl-phenyl)-2-(1-methoxy-piperidin-4-ylmethyl)-5-oxo-2,5-dihydro-1H-pyrrol-3-yl ester ethyl ester]	> 80	≥ 80	
75 to 76	CCOC(=O)OC1=C(c2cc(C)ccc2C)C(=O)NC1CC1CCSCC1 (stereo not drawn) [Compound P1.2, carbonic acid 4-(2,5-dimethyl-phenyl)-5-oxo-2-(tetrahydro-thiopyran-4-ylmethyl)-2,5-dihydro-1H-pyrrol-3-yl ester ethyl ester]			
97 to 101	CCOC(=O)OC1=C(c2cc(C)ccc2C)C(=O)NC1CC1CCS(=O)(=O)CC1 (stereo not drawn) [Compound P1.3]			
103 to 106	CCOC(=O)OC1=C(c2cc(C)ccc2C)C(=O)NC1CC1CC[S+]([O-])CC1 (stereo not drawn) [Compound P1.4, carbonic acid 4-(2,5-dimethyl-phenyl)-5-oxo-2-(1-oxo-hexahydro-1λ^4-thiopyran-4-ylmethyl)-2,5-dihydro-1H-pyrrol-3-yl ester ethyl ester]			
	CCOC(=O)OC1=C(c2cc(C)ccc2C)C(=O)NC1CC1CCS(=O)(=NC#N)CC1 (stereo not drawn) [Compound P1.5]	> 80		
190 to 192	CCOC(=O)OC1=C(c2cc(C)ccc2C)C(=O)NC1CC1CCS(=NC(=O)C(F)(F)F)CC1 (stereo not drawn) [Compound P1.8]			
103 to 105	CCOC(=O)OC1=C(c2cc(C)ccc2C)C(=O)NC1CC1CCS(=NC#N)CC1 (stereo not drawn) [Compound P1.9, carbonic acid 2-(1-cyanoimino-hexahydro-1λ^4-thiopyran-4-ylmethyl)-4-(2,5-dimethyl-phenyl)-5-oxo-2,5-dihydro-1H-pyrrol-3-yl ester ethyl ester]			
	CCOC(=O)OC1=C(c2c(C)cc(C)cc2C)C(=O)NC1CC1CCN(OC)CC1 (stereo not drawn) [Compound P1.10]	> 80	≥ 80	> 80
	CCOC(=O)OC1=C(c2cc(C)ccc2C)C(=O)NC1C1CCN(OC)CC1 (stereo not drawn) [Compound P1.11]		≥ 80	> 80
	CCOC(=O)OC1=C(c2c(C)cc(C)cc2C)C(=O)NC1C1CCN(OC)CC1 (stereo not drawn) [Compound P1.12, carbonic acid ethyl ester 2-(1-methoxy-piperidin-4-yl)-5-oxo-4-(2,4,6-trimethyl-phenyl)-2,5-dihydro-1H-pyrrol-3-yl ester]	> 80	≥ 80	> 80
	CCOC(=O)OC1=C(c2c(C)cc(C)cc2C)C(=O)N(C)C1CC1CCN(OC)CC1 (stereo not drawn) [Compound P1.13]	> 80	≥ 80	
	CCOC(=O)OC1=C(c2c(C)cc(C)cc2C)C(=O)OC1CC1CCN(OC)CC1 (stereo not drawn) [Compound P1.14]		≥ 80	> 80
	CCOC(=O)OC1=C(c2c(C)cc(C)cc2C)C(=O)OC1C1CCN(OC)CC1 (stereo not drawn) [Compound P1.15]	> 80	≥ 80	> 80
	Cc1cc(C)c(C2=C(OC(=O)C(C)(C)C)C(CC3CCOCC3)OC2=O)c(C)c1 (stereo not drawn) [Compound P1.16]	> 80		

melting point [°C]	Compound	pest or weed control at 400 ppm [1] [%]	pest or weed control at 200 ppm [2] [%]	pest or weed control at 400 ppm [3] [%]
	CCOC(=O)OC1=C(c2c(C)cc(Cl)cc2C)C(=O)NC1C1CCN(OC)CC1 (stereo not drawn) [Compound P1.18]	> 80		
	CCOC(=O)OC1=C(c2c(C)cc(Cl)cc2C)C(=O)NC1CC1CCN(OC)CC1 (stereo not drawn) [Compound P1.19]			> 80
	Cc1cc(C)c(C2C(=O)NC(CC3CCOCC3)C2=O)c(C)c1 (stereo not drawn) [Compound P2.1]	> 80		
	CON1CCC(CC2NC(=O)C(c3cc(C)ccc3C)=C2O)CC1 (stereo not drawn) [Compound P2.2, 3-(2,5-dimethyl-phenyl)-4-hydroxy-5-(1-methoxy-piperidin-4-ylmethyl)-1,5-dihydro-pyrrol-2-one]	> 80		
114 to 116	Cc1ccc(C)c(C2C(=O)NC(CC3CCOCC3)C2=O)c1 (stereo not drawn) [Compound P2.4]			
244 to 246	Cc1ccc(C)c(C2=C(O)C(CC3CCS(=O)(=O)CC3)NC2=O)c1 (stereo not drawn) [Compound P2.6, 3-(2,5-dimethyl-phenyl)-5-(1,1-dioxo-hexahydro-1λ^6-thiopyran-4-ylmethyl)-4-hydroxy-1,5-dihydro-pyrrol-2-one]			
189 to 191	Cc1ccc(C)c(C2C(=O)NC(CC3CCS(=O)(=NC#N)CC3)C2=O)c1 (stereo not drawn) [Compound P2.9]			
142 to 145	Cc1ccc(C)c(C2C(=O)NC(CC3CCN(C)CC3)C2=O)c1 (stereo not drawn) [Compound P2.10]			
133 to 136	Cc1cc(C)c(C2C(=O)NC(CC3CCN(C)CC3)C2=O)c(C)c1 (stereo not drawn) [Compound P2.11]			
206 to 209	CON1CCC(C2NC(=O)C(c3c(C)cc(C)cc3C)=C2O)CC1 (stereo not drawn) [Compound P2.12, 4-hydroxy-5-(1-methoxy-piperidin-4-yl)-3-(2,4,6-trimethyl-phenyl)-1,5-dihydro-pyrrol-2-one]			
	CON1CCC(CC2NC(=O)C(c3c(C)cc(C)cc3C)C2=O)CC1 (stereo not drawn) [Compound P2.13]	> 80	≥ 80	> 80
	CON1CCC(C2NC(=O)C(c3cc(C)ccc3C)C2=O)CC1 (stereo not drawn) [Compound P2.14]		≥ 80	
	CON1CCC(CC2OC(=O)C(c3c(C)cc(C)cc3C)C2=O)CC1 (stereo not drawn) [Compound P2.16]	> 80	≥ 80	> 80
	CON1CCC(C2OC(=O)C(c3c(C)cc(C)cc3C)C2=O)CC1 (stereo not drawn) [Compound P2.17]	> 80	≥ 80	> 80
	CON1CCC(C2NC(=O)C(c3c(C)cc(Cl)cc3C)C2=O)CC1 (stereo not drawn) [Compound P2.21]	> 80	≥ 80	> 80
	CON1CCC(CC2NC(=O)C(c3c(C)cc(Cl)cc3C)C2=O)CC1 (stereo not drawn) [Compound P2.22]	> 80	≥ 80	
